# Measured values reported in ChEMBL document CHEMBL3046054, “Chemico-biological investigation of rhizome essential oil of Zingiber morannative to Northeast India” (Med Chem Res, 2013).
# Activity calls are given as the source filed them. No cut-off for these calls is given here.
# Legend:
# HeLa [1] = test: Induction of apoptosis in Homo sapiens (human) HeLa cells assessed as rounded cells at 10 to 50 ug/ml after 24 hr by light microscopic analysis; format: functional, cell-based
# HeLa [2] = test: Induction of apoptosis in Homo sapiens (human) HeLa cells assessed as apoptotic bodies at <40 ug/ml after 24 hr by light microscopic analysis; format: functional, cell-based
# HeLa [3] = test: Growth inhibition of Homo sapiens (human) HeLa cells at 10 to 30 ug/ml up to 3 days by MTT assay; format: functional
# HeLa [4] = test: Cytotoxicity against Homo sapiens (human) HeLa cells up to 3 days by MTT assay; format: functional, cell-based; details: for IC50: 72 h
# HeLa [5] = test: Induction of apoptosis in Homo sapiens (human) HeLa cells assessed as loss of cell to cell contact at <40 ug/ml after 24 hr by light microscopic analysis; format: functional, cell-based
# HeLa [6] = test: Induction of apoptosis in Homo sapiens (human) HeLa cells assessed as detachment from substratum at <40 ug/ml after 24 hr by light microscopic analysis; format: functional, cell-based
# HeLa [7] = test: Induction of necrosis in Homo sapiens (human) HeLa cells assessed as dissolution of cytoplasmic membrane at >50 ug/ml after 24 hr by light microscopic analysis; format: functional, cell-based
# HeLa [8] = test: Cytotoxicity against Homo sapiens (human) HeLa cells assessed as decrease in cell viability at 10 to 100 ug/ml after 24 hr by acridine orange/ethidium bromide-based inverted fluorescence microscopic analysis; format: functional
# HeLa [9] = test: Induction of necrosis in Homo sapiens (human) HeLa cells assessed as dissolution of nuclear membrane at >50 ug/ml after 24 hr by light microscopic analysis; format: functional, cell-based
# HeLa [10] = test: Induction of apoptosis in Homo sapiens (human) HeLa cells assessed as floating cells at 10 to 50 ug/ml after 24 hr by light microscopic analysis; format: functional, cell-based
# HeLa [11] = test: Induction of necrosis in Homo sapiens (human) HeLa cells assessed as increase in cytoplasmic vacuolization at >50 ug/ml after 24 hr by light microscopic analysis; format: functional, cell-based
# HeLa [12] = test: Induction of apoptosis in Homo sapiens (human) HeLa cells assessed as fragmented nuclei at 10 to 100 ug/ml after 24 hr by acridine orange/ethidium bromide-based inverted fluorescence microscopic analysis; format: functional, cell-based
# HeLa [13] = test: Induction of apoptosis in Homo sapiens (human) HeLa cells assessed as rounded cells at 10 to 100 ug/ml after 48 hr by light microscopic analysis; format: functional, cell-based
# HeLa [14] = test: Cytotoxicity against Homo sapiens (human) HeLa cells assessed as cell death at 10 to 100 ug/ml after 48 hr by light microscopic analysis; format: functional, cell-based
# HeLa [15] = test: Induction of necrosis in Homo sapiens (human) HeLa cells assessed as increase in cytoplasmic volume at >50 ug/ml after 24 hr by light microscopic analysis; format: functional, cell-based
# HeLa [16] = test: Induction of apoptosis in Homo sapiens (human) HeLa cells assessed as membrane blebbing at <40 ug/ml after 24 hr by light microscopic analysis; format: functional, cell-based
# HeLa [17] = test: Induction of necrosis in Homo sapiens (human) HeLa cells assessed as increase in nucleus volume at >50 ug/ml after 24 hr by light microscopic analysis; format: functional, cell-based
# HeLa [18] = test: Induction of necrosis in Homo sapiens (human) HeLa cells assessed as chromatin flocculation at >50 ug/ml after 24 hr by light microscopic analysis; format: functional, cell-based
# HeLa [19] = test: Induction of apoptosis in Homo sapiens (human) HeLa cells assessed as loss of cell to cell contact at <55 ug/ml after 24 hr by light microscopic analysis; format: functional, cell-based
# HeLa [20] = test: Induction of apoptosis in Homo sapiens (human) HeLa cells assessed as apoptotic bodies at <55 ug/ml after 24 hr by light microscopic analysis; format: functional, cell-based
# HeLa [21] = test: Induction of apoptosis in Homo sapiens (human) HeLa cells assessed as membrane blebbing at <55 ug/ml after 24 hr by light microscopic analysis; format: functional, cell-based
# HeLa [22] = test: Induction of apoptosis in Homo sapiens (human) HeLa cells assessed as detachment from substratum at <55 ug/ml after 24 hr by light microscopic analysis; format: functional, cell-based
Compound,Activity (HeLa [1]),Activity (HeLa [2]),growth inhibition (GI) (HeLa [3]) [%],Activity (HeLa [4]),IC50 (HeLa [4]) [µg/mL],Activity (HeLa [5]),Activity (HeLa [6]),Activity (HeLa [7]),Activity (HeLa [8]),Activity (HeLa [9]),Activity (HeLa [10]),Activity (HeLa [11]),Activity (HeLa [12]),Activity (HeLa [13]),Activity (HeLa [14]),Activity (HeLa [15]),Activity (HeLa [16]),Activity (HeLa [17]),Activity (HeLa [18]),other results
CC(C)=CCCC(C)=CC=O,Active,Active,60,Dose-dependent effect,39.6,Active,Active,Active,Active,Active,Active,Active,Active,Active,Active,Active,Active,Active,Active,
C=C1C2CCC(C2)C1(C)C (configuration not stated) [CAMPHENE],Active,Active,60,Dose-dependent effect,38.5,Active,Active,Active,Active,Active,Active,Active,Active,Active,Active,Active,Active,Active,Active,
C=CC(C)(O)CCC=C(C)C (configuration not stated) [LINALOOL],Active,,60,Dose-dependent effect,55.4,,,Active,Active,Active,Active,Active,Active,Active,Active,Active,,Active,Active,Activity (HeLa [19]): Active; Activity (HeLa [20]): Active; Activity (HeLa [21]): Active; Activity (HeLa [22]): Active
